target: T1, CYP11A1 (Homo sapiens, UniProt P05108); assay: CYP11A1 inhibition, isocaproic acid release assay (IARA) in H295R cells; assay type: cell-based; details: human H295R adrenocortical carcinoma cells treated three days, 3 nM [24,25-3H]-labelled cholesterol, 1% DMSO; read-out: IC50 on CYP11A1 inhibition (Group)
T1 construct: human H295R adrenocortical carcinoma cell line was used as source of enzyme; endogenous in cells; host or cells: H295R human adrenocortical carcinoma cells
T1 sequence (P05108 40-521): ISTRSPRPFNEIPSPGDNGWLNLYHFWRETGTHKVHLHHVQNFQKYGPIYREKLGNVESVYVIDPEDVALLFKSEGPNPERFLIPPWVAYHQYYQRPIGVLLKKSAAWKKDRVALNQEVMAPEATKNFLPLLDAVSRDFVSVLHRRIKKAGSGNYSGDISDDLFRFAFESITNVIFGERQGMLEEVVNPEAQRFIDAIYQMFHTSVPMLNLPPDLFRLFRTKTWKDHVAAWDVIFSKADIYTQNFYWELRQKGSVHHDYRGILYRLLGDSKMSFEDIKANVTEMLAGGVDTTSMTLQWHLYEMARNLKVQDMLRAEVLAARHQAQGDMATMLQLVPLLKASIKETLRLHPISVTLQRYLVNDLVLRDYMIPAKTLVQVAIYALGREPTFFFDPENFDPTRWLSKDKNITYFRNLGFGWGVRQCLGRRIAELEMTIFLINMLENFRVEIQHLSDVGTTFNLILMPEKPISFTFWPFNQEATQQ
Protocol: The ability of the test compounds to inhibit conversion of cholesterol to pregnenolone and isocaproic acid was measured by modification of isocaproic acid release assay (IARA) described by Ruangwises et al. (Biology of Reproduction 1991; 45(1):143-50) except that human H295R adrenocortical carcinoma cell line was used as source of enzyme and extraction was done with dextran-coated charcoal suspension (Isomaa, V. et al., Endocrinology 1982; 111(3):833-843). […] To determine the half maximal inhibitory concentration (IC50) of the test compounds on CYP11A1 inhibition, the cells were treated for three days with increasing concentrations of the test compounds in the presence of 3 nM [24,25-3H]-labelled cholesterol (American Radiolabelled Chemicals).
The final DMSO concentration was 1%. Cell culture medium was extracted with dextran-coated charcoal suspension and the radiolabelled isocaproic acid was determined by mixing 100 μl of supernatant fraction in 200 μl of scintillation fluid (OptiPhase SuperMix, Perkin Elmer). Radioactivity was measured using a Microbeta scintillation counter (1450 MicroBeta Trilux, Wallac). All the test compounds were studied at 10 concentrations in duplicates.

Row | Compound | IC50 [nM]
1 | CN(C)C(=O)c1ccc(COc2ccc(CN3Cc4ccccc4C3)c(F)c2)cc1 [Compound 24, 4-((3-Fluoro-4-(isoindolin-2-ylmethyl)phenoxy)methyl)-N,N-dimethylbenzamide] | 351 to 1500
2 | CN(C)C(=O)c1ccc(COc2ccc(CN3Cc4ccccc4C3=O)cc2OC(F)(F)F)cc1 [Compound 30, N,N-Dimethyl-4-((4-((1-oxoisoindolin-2-yl)methyl)-2-(trifluoromethoxy)-phenoxy)methyl)benzamide] | 351 to 1500
3 | CS(=N)(=O)c1ccc(COc2ccc(CN3Cc4ccccc4C3)c3cccnc23)cc1 (stereo not shown) [Compound 44, Imino(4-(((5-(isoindolin-2-ylmethyl)quinolin-8-yl)oxy)methyl)phenyl)(methyl)-λ^6-sulfanone] | < 150
4 | COC(=O)/C=C/c1ccc(COc2ccc(CN3Cc4ccccc4C3)cc2OC)cc1 [Compound 9, Methyl (E)-3-(4-((4-(isoindolin-2-ylmethyl)-2-methoxyphenoxy)methyl)phenyl)acrylate] | 351 to 1500
5 | COc1cc(CN2Cc3ccc(SC)cc3C2)ccc1OCc1ccc(C(=O)N(C)C)cc1 [Compound 34, 4-((2-Methoxy-4-((5-(methylthio)isoindolin-2-yl)methyl)phenoxy)methyl)-N,N-dimethylbenzamide] | < 150
6 | CS(=N)(=O)c1ccc(COc2ccc(CN3Cc4ccccc4C3)cc2C#N)cc1 (stereo not shown) [Compound 33, 5-(isoindolin-2-ylmethyl)-2-((4-(S-methylsulfonimidoyl)benzyl)oxy)benzonitrile] | < 150
7 | CN(C)C(=O)c1ccc(COc2cc(F)c(CN3Cc4ccccc4C3)cc2F)cc1 [Compound 26, 4-((2,5-Difluoro-4-(isoindolin-2-ylmethyl)phenoxy)methyl)-N,N-dimethyl-benzamide] | < 150
8 | CN(C)C(=O)c1ccc(COc2cc(F)c(CN3Cc4ccccc4C3)c(F)c2)cc1 [Compound 25, 4-((3,5-Difluoro-4-(isoindolin-2-ylmethyl)phenoxy)methyl)-N,N-dimethyl-benzamide] | 151 to 350
9 | CCS(=O)(=O)c1ccc(COc2ccc(CN3Cc4ccccc4C3)cc2C(C)=O)cc1 [Compound 43, 1-(2-((4-(Ethylsulfonyl)benzyl)oxy)-5-(isoindolin-2-ylmethyl)phenyl)ethan-1-one] | < 150
10 | CS(=O)(=O)N1CCC(COc2ccc(CN3Cc4ccccc4C3)c3ncoc23)CC1 [Compound 46, 4-(Isoindolin-2-ylmethyl)-7-((1-(methylsulfonyl)piperidin-4-yl)methoxy)-benzo[d]oxazole] | 351 to 1500
11 | COCc1cc(CN2Cc3ccccc3C2)ccc1OCc1ccc(S(C)(=O)=O)cc1 [Compound 18, 2-(3-(Methoxymethyl)-4-((4-(methylsulfonyl)benzyl)oxy)benzyl)isoindoline] | 151 to 350
12 | COCCc1cc(CN2Cc3ccccc3C2)ccc1OCC1CCN(S(C)(=O)=O)CC1 [Compound 37, 2-(3-(2-Methoxyethyl)-4-((1-(methylsulfonyl)piperidin-4-yl)methoxy)benzyl)-isoindoline] | 151 to 350
13 | C=CCc1cc(CN2Cc3ccccc3C2)ccc1OCc1ccc(C(=O)N(C)C)cc1 [Compound 15, 4-((2-Allyl-4-(isoindolin-2-ylmethyl)phenoxy)methyl)-N,N-dimethylbenzamide] | 151 to 350
14 | CN(C)C(=O)c1ccc(COc2ccc(CN3Cc4ccccc4C3)cc2OCC(F)(F)F)cc1 [Compound 11, 4-((4-(Isoindolin-2-ylmethyl)-2-(2,2,2-trifluoroethoxy)phenoxy)methyl)-N,N-dimethylbenzamide] | 151 to 350
15 | CCC(=O)N1CCC(COc2ccc(CN3Cc4ccccc4C3)cc2C(C)=O)CC1 [Compound 49, 1-(4-((2-Acetyl-4-(isoindolin-2-ylmethyl)phenoxy)methyl)piperidin-1-yl)propan-1-one] | 151 to 350
16 | CN(C)C(=O)c1ccc(COc2ccc(CN3Cc4ccccc4C3)c3cccnc23)cc1 [Compound 41, 4-(((5-(Isoindolin-2-ylmethyl)quinolin-8-yl)oxy)methyl)-N,N-dimethyl-benzamide] | < 150

Continued, values first:

Row | IC50 [nM] | Compound
17 | 151 to 350 | COC(=O)c1cc(CN2Cc3ccccc3C2)ccc1OCc1ccc(C(=O)N(C)C)cc1 [Compound 7, Methyl 2-((4-(dimethylcarbamoyl)benzyl)oxy)-5-(isoindolin-2-ylmethyl)-benzoate]
18 | < 150 | COc1cc(CN2Cc3ccccc3C2)ccc1OCc1ccc(S(C)(=O)=O)cc1 [Compound 12, 2-(3-Methoxy-4-((4-(methylsulfonyl)benzyl)oxy)benzyl)isoindoline]
19 | 151 to 350 | CN(C)C(=O)c1ccc(COc2ccc(CN3Cc4ccccc4C3)cc2Cl)cc1 [Compound 4, 4-((2-Chloro-4-(isoindolin-2-ylmethyl)phenoxy)methyl)-N,N-dimethyl-benzamide]
20 | 351 to 1500 | COC(=O)c1ccc(COc2ccc(CN3Cc4ccccc4C3)cc2[N+](=O)[O-])cc1 [Compound 39, Methyl 4-((4-(isoindolin-2-ylmethyl)-2-nitrophenoxy)methyl)benzoate]
21 | 151 to 350 | COCc1cc(CN2Cc3ccccc3C2)ccc1OCc1ccc(C(=O)N(C)C)cc1 [Compound 10, 4-((4-(Isoindolin-2-ylmethyl)-2-(methoxymethyl)phenoxy)methyl)-N,N-di-methylbenzamide]
22 | < 150 | CC(=O)c1cc(CN2Cc3ccccc3C2)ccc1OCc1ccc(C(=O)N(C)C)cc1 [Compound 42, 4-((2-Acetyl-4-(isoindolin-2-ylmethyl)phenoxy)methyl)-N,N-dimethylbenzamide]
23 | 151 to 350 | CCOc1cc(CN2Cc3ccccc3C2)ccc1OCc1ccc(C(=O)N(C)C)cc1 [Compound 8, 4-((2-Ethoxy-4-(isoindolin-2-ylmethyl)phenoxy)methyl)-N,N-dimethyl-benzamide]
24 | < 150 | CN(C)C(=O)c1ccc(COc2ccc(CN3Cc4ccccc4C3)cc2C#N)cc1 [Compound 6, 4-((2-Cyano-4-(isoindolin-2-ylmethyl)phenoxy)methyl)-N,N-dimethylbenzamide]
25 | 351 to 1500 | CN(C)C(=O)c1ccc(COc2ccc(CN3Cc4ccccc4C3)cc2NS(C)(=O)=O)cc1 [Compound 53, 4-((4-(Isoindolin-2-ylmethyl)-2-(methylsulfonamido)phenoxy)methyl)-N,N-dimethylbenzamide]
